The term MIC denotes the lowest concentration that inhibits growth of the organism.

Data on two compounds can be found in ChEMBL document CHEMBL3046235, “In vitro biological activities of new heterocyclic chalcone derivatives” (Med Chem Res, 2013).

Converted amounts (≈) assume the structure as drawn. The source made the active and inactive calls. The rule behind the calls is not given here.

Data set [1] has as its system Candida albicans. Nature of the data set: Antimicrobial activity against Candida albicans assessed as diameter of growth inhibition zone at 40 ug/ml by disk diffusion method. Type of data set: functional. The note with it: read-out: DIZ.
For data set [2], the system named is Aspergillus niger. Nature of the data set: Antimicrobial activity against Aspergillus niger assessed as diameter of growth inhibition zone at 40 ug/ml by disk diffusion method. The note with it: read-out: DIZ. It counts as functional. A general note: In agar diffusion tests the substance spreads into inoculated agar from a disc or well.
Data set [3] relates to Escherichia coli. Nature of the data set: Antimicrobial activity against Escherichia coli isolated from infected patient assessed as diameter of growth inhibition zone at 40 ug/ml by disk diffusion method. Type of data set: functional. The note with it: read-out: DIZ.
Data set [4] relates to Salmonella typhi. Put plainly: Antimicrobial activity against Salmonella enterica subsp. enterica serovar Typhi isolated from infected patient assessed as diameter of growth inhibition zone at 40 ug/ml by disk diffusion method. The note with it: read-out: DIZ. It counts as functional.
For data set [5], the system named is Bacillus subtilis. Nature of the data set: Antimicrobial activity against Bacillus subtilis isolated from infected patient assessed as diameter of growth inhibition zone at 40 ug/ml by disk diffusion method. Type of data set: functional. The note with it: read-out: DIZ.
For data set [6], the system named is Staphylococcus aureus. Put plainly: Antimicrobial activity against Staphylococcus aureus isolated from infected patient assessed as diameter of growth inhibition zone at 40 ug/ml by disk diffusion method. Type of data set: functional. The note with it: read-out: DIZ.
Data set [7] relates to HepG2. Put plainly: Growth inhibition of Homo sapiens (human) HepG2 cells up to 75 ug/ml after 48 hr by MTT assay. Type of data set: functional, cell-based. (In general: Tetrazolium assays rely on reduction of a dye to a coloured formazan, in cell work by metabolically active cells.)
Data set [8] has as its system HepG2. Put plainly: Cytotoxicity against Homo sapiens (human) HepG2 cells assessed as inhibition of cell viability by trypan blue exclusion method. Type of data set: functional. The settings on record: read-out: LC50 (the source's name).
For data set [9], the system named is HepG2. Put plainly: Growth inhibition of Homo sapiens (human) HepG2 cells at 100 ug/ml after 48 hr by MTT assay. Type of data set: functional. The note with it: HepG2, 48 h, read-out: GI.
Data set [10] has as its system Goatpox virus. Put plainly: Antiviral activity against Goatpox virus infected African green monkey Vero cells assessed as inhibition of viral replication at MNTC dose incubated for 24 hr measured after 6 days. Type of data set: functional.
Data set [11] has as its system Buffalopox virus. Put plainly: Antiviral activity against Buffalopox virus virus infected African green monkey Vero cells assessed as inhibition of viral replication at MNTC dose incubated for 24 hr measured after 4 days. Type of data set: functional.
For data set [12], the system named is Camelpox virus. Nature of the data set: Antiviral activity against Camelpox virus infected African green monkey Vero cells assessed as inhibition of viral replication at MNTC dose incubated for 24 hr measured after 3 days. It counts as functional.
Data set [13] relates to Goatpox virus. Put plainly: Antiviral activity against Goatpox virus infected African green monkey Vero cells assessed as reduction of virus titers at MNTC dose incubated for 24 hr measured after 6 days by TCID50 assay. It counts as functional, organism-based.
The subject of data set [14] is Buffalopox virus. Nature of the data set: Antiviral activity against Buffalopox virus virus infected African green monkey Vero cells assessed as reduction of virus titers at MNTC dose incubated for 24 hr measured after 4 days by TCID50 assay. It counts as functional, organism-based.
Data set [15] relates to Camelpox virus. Nature of the data set: Antiviral activity against Camelpox virus infected African green monkey Vero cells assessed as reduction of virus titers at MNTC dose incubated for 24 hr measured after 3 days by TCID50 assay. It counts as functional, organism-based.
Data set [16] deals with Vero. Put plainly: Cytotoxicity against Chlorocebus aethiops (African green monkey) Vero cells assessed as change in morphological changes after 4 days by inverted microscopic analysis. Type of data set: cell-based. The settings on record: chlorocebus sabaeus, 96 h.
In data set [17] the test system is Radical scavenging activity. Put plainly: Antioxidant activity assessed as DPPH radical scavenging activity at 15 ug/ml after 30 min by spectrophotometric analysis. Type of data set: functional.
Data set [18] concerns Candida albicans. Put plainly: Antimicrobial activity against Candida albicans assessed as growth inhibition by disk diffusion method. It counts as functional.
The subject of data set [19] is Aspergillus niger. Put plainly: Antimicrobial activity against Aspergillus niger assessed as growth inhibition by disk diffusion method. Type of data set: functional.
Data set [20] has as its system Escherichia coli. Nature of the data set: Antimicrobial activity against Escherichia coli isolated from infected patient assessed as growth inhibition by disk diffusion method. Type of data set: functional.
Data set [21] deals with Salmonella typhi. Put plainly: Antimicrobial activity against Salmonella enterica subsp. enterica serovar Typhi isolated from infected patient assessed as growth inhibition by disk diffusion method. Type of data set: functional.
For data set [22], the system named is Bacillus subtilis. Nature of the data set: Antimicrobial activity against Bacillus subtilis isolated from infected patient assessed as growth inhibition by disk diffusion method. Type of data set: functional.
The subject of data set [23] is Staphylococcus aureus. Put plainly: Antimicrobial activity against Staphylococcus aureus isolated from infected patient assessed as growth inhibition by disk diffusion method. Type of data set: functional.
In data set [24] the test system is HepG2. Nature of the data set: Growth inhibition of Homo sapiens (human) HepG2 cells at 25 to 100 ug/ml after 48 hr by MTT assay. It counts as functional, cell-based.

`Cc1cc(C(=O)/C=C/c2ccc(-c3ccccc3)cc2)c(C)o1`: the zone of inhibition at 40 µg/mL in data set [1] amounted to 23 mm; in [2], 23 mm; in data set [3], 23 mm; in data set [4] it was 22 mm; in data set [5], 24 mm; in data set [6] it was 16 mm. Further, the “growth inhibition (GI)” value in [7] is “Active”. The CC50 in data set [8] was found to be 92 µg/mL (≈ 304 µM). The inhibition of growth at 100 µg/mL in data set [9] was 67%. In addition, the “inhibition (INH)” value in data set [10], in data set [11] and in [12] was 0% each time. Moreover, the inhibition result in data set [13], in data set [14] and in data set [15] was “inactive” in each case. Besides, the MNTD in [16] came to 4.68 µg. For the same compound, the Activity in data set [17] turned out to be 31%. The MIC was determined as 20 µg/mL (≈ 66.1 µM) in data set [18]; 20 µg/mL (≈ 66.1 µM) in [19]; 20 µg/mL (≈ 66.1 µM) in data set [20]; 30 µg/mL (≈ 99.2 µM) in data set [21]; 30 µg/mL (≈ 99.2 µM) in [22]; 20 µg/mL (≈ 66.1 µM) in data set [23].

As to `CCc1ccc(/C=C/C(=O)c2ccsc2)o1`, the zone of inhibition at 40 µg/mL in [1] was determined as 25 mm; in data set [2], 23 mm; in [3], 25 mm; in data set [4], 26 mm; in data set [5] it was 25 mm; in [6], 23 mm. Besides, the “growth inhibition (GI)” value in data set [24] is “Active”. Besides, the CC50 in data set [8] amounted to 8 µg/mL (≈ 34.4 µM). Besides, the “inhibition (INH)” value in data set [10], in data set [11] and in data set [12] was 0% throughout. The inhibition result in [13], in data set [14] and in data set [15] was “inactive” each time. The MNTD in data set [16] came out at 58.3 µg. The Activity in data set [17] amounted to 31%. Further, the MIC in [18] is 20 µg/mL (≈ 86.1 µM); in data set [19] it was 40 µg/mL (≈ 172 µM); in data set [20] it was 30 µg/mL (≈ 129 µM); in data set [21], 20 µg/mL (≈ 86.1 µM); in [22], 20 µg/mL (≈ 86.1 µM); in data set [23], 20 µg/mL (≈ 86.1 µM).
